Experimental data taken from patent US8101608B2, “Compounds and compositions as protein kinase inhibitors” (IRM LLC, a Delware Limited Corporation, priority 2004, dated 2012).

Legend:
Aurora-A = target: T1, Aurora-A (Homo sapiens, UniProt O14965); test: Kinase inhibition, Upstate KinaseProfiler radio-enzymatic filter binding assay; format: biochemical
T1 construct: purchased Upstate (KinaseProfiler panel)
T1 sequence (O14965 1-403): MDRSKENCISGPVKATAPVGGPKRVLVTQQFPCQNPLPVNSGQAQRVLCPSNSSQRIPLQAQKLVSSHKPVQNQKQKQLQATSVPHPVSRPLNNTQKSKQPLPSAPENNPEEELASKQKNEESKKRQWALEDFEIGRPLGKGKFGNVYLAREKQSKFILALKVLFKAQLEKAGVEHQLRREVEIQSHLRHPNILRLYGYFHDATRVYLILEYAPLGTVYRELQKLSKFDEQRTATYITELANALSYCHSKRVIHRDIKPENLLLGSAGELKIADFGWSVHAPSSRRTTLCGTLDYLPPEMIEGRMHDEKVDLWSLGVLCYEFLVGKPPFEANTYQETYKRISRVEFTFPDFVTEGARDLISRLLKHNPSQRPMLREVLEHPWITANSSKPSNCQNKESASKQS
Procedure: (§1) Percentage inhibition is calculated for each reaction.

c-RAF = target: T2, c-RAF (Homo sapiens, UniProt P04049); test: as above; format: biochemical
T2 construct: "active kinase (0.001-0.01 Units); fused on or other part: Probably an N-terminal GST tag (vendor's product)
Procedure: as §1

trkC = target: T3, trkC (Homo sapiens, UniProt Q16288); test: Inhibition of cellular ETV6-NTRK3 dependent proliferation (Ba/F3 EN cells); format: cell-based, murine; conditions: MTT, read-out: IC50 for TrkC
T3 construct: fused on or other part: P41212 (Transcription factor ETV6)
Procedure: The murine cell line used is the Ba/F3 hematopoietic progenitor cell line transformed with ETV6-NTRK3 cDNA (Ba/13 EN). These cells are maintained in RPMI/10% fetal calf serum (RPMI/FCS) supplemented with penicillin 50 μg/mL, streptomycin 50 μg/mL and L-glutamine […]. Untransformed Ba/F3 cells are similarly maintained with the addition of 10% of WEHI conditioned medium as a source of IL3.

T3 sequence (Q16288 whole entry, change not shown, the tested form may be a part): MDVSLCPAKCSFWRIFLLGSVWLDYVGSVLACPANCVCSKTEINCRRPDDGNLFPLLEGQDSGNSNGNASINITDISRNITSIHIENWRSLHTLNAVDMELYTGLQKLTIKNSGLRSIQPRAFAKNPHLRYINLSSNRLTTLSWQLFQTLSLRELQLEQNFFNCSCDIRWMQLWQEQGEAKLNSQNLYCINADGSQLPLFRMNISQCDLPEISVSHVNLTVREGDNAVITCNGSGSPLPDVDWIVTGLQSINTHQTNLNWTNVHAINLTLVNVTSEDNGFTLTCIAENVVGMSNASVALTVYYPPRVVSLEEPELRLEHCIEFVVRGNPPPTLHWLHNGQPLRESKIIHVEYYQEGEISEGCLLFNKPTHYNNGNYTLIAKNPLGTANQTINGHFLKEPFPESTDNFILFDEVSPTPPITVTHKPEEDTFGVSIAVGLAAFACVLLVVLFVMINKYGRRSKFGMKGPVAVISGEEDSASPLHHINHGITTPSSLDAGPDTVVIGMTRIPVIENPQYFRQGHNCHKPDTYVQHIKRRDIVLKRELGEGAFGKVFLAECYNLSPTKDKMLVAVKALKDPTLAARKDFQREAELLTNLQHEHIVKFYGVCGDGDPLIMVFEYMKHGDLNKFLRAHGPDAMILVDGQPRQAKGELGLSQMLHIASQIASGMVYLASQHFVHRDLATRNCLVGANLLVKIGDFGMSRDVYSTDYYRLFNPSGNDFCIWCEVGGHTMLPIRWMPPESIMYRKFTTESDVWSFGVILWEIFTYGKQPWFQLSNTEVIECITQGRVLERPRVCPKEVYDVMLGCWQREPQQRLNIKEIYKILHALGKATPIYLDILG
T2 sequence (P04049 whole entry Y340D/Y341D, form open, the tested form may be a part): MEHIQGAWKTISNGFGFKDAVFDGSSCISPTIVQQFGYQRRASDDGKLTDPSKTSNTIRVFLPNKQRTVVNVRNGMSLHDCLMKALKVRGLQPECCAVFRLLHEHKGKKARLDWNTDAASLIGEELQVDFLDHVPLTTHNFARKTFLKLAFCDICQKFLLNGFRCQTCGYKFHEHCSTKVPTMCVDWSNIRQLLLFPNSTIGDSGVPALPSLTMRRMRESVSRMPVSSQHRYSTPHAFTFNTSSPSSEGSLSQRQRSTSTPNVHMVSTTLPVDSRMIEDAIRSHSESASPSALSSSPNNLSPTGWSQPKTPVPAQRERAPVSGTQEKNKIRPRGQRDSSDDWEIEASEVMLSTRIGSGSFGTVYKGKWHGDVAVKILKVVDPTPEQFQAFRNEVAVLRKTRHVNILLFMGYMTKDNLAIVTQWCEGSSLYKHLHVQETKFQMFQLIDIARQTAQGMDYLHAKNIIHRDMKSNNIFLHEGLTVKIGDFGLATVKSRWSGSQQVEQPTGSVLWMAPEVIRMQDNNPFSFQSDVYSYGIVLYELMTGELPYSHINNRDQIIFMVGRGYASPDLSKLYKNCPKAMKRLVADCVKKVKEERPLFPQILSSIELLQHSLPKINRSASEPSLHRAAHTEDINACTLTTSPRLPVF

IC50 (Aurora-A): 15 nM | IC50 (c-RAF): 116 nM | GI50 (trkC): 16.7 nM
Structure (SMILES): Cc1cn(-c2cc(C(=O)Nc3cccc(Nc4ccc5c(c4)NC(=O)/C5=C/c4ccc[nH]4)c3)cc(C(F)(F)F)c2)cn1 [Example 1]
